Laboratory results taken from patent US10918645B2 (LIFEARC, priority 2016, dated 2021).

Assays:
Type in all cases: biochemical
Conditions in all cases: 1 μM inhibitor concentration
[1] = target: CAMKKb (Homo sapiens (Human), UniProt Q96RR4); experiment: CAMKKb kinase selectivity assay
Experimental: (§1) 5-20 mU of CAMKKb (diluted in 50 mM Tris (pH 7.5), 0.1 mM EGTA, 1 mg/ml BSA, 0.1%, b-Mercaptoethanol) is assayed against substrate peptide ([…]) in a final volume of 25.5 μl containing 50 mM Tris (pH 7.5), 0.1 mM EGTA, 0.5 mM CaCl2, 0.3 μM calmodulin, 0.1%, b-Mercaptoethanol, 300 μM substrate peptide, 10 mM magnesium acetate and 0.02 mM [33P-g-ATP](500-1000 cpm/pmole) and incubated for 30 mins at room temperature. Assays are stopped by addition of 5 μl of 0.5M (3%) orthophosphoric acid. Assays are harvested onto P81 Unifilter plates using a wash buffer of 50 mM orthophosphoric acid.

[2] = target: NEK2a (Homo sapiens (Human), UniProt P51955); experiment: NEK2a kinase selectivity assay
Experimental: as §1, with “NEK2a” for “CAMKKb”, “NEK2a” for “substrate”, “0.01% Brij,” for “0.5 mM CaCl2, 0.3 μM calmodulin,”, “0.05” for “0.02”

[3] = test system: CK2; experiment: CK2 kinase selectivity assay
Experimental: CK2 (5-20 mU diluted in 20 mM Hepes pH7.5, 0.15 M NaCl, 0.1 mM EGTA, 0.1% Triton X-100, 5 mM DTT, 50% glycerol) is assayed against CKII peptide ([…]) in a final volume of 25.5 μl containing 20 mM Hepes pH 7.5, 0.15 M NaCl, 0.1 mM EDTA, 5 mM DTT, 0.1% Triton-X 100, CKII peptide (0.165 mM), 10 mM magnesium acetate and 0.005 mM [33P-g-ATP](500-1000 cpm/pmole) and incubated for 30 min at room temperature. Assays are stopped by addition of 5 μl of 0.5 M (3%) orthophosphoric acid and then harvested onto P81 Unifilter plates with a wash buffer of 50 mM orthophosphoric acid.

[4] = target: PRK2 (Homo sapiens (Human), UniProt Q16513); experiment: PRK2 kinase selectivity assay
Experimental: as §1, with “PRK2” for “CAMKKb”, “Long S6” for “substrate”, “EGTA,” for “EGTA, 0.5 mM CaCl2, 0.3 μM calmodulin,”, “30” for “300”, “0.005” for “0.02”

[5] = target: TTK (Homo sapiens (Human), UniProt P33981); experiment: TTK kinase selectivity assay
Experimental: TTK (5-20 mU diluted in 50 mM Tris pH 7.5, 0.1 mM EGTA, 0.1% 0-mercaptoethanol, 1 mg/ml BSA) is assayed against […] in a final volume of […] containing 50 mM Tris pH 7.5, 0.1 mM EGTA, 0.3 mM […], 10 mM magnesium acetate and 0.02 mM [33P-γ-ATP] (50-1000 cpm/pmole) and incubated for 30 min at room temperature. Assays are stopped by addition of 5 μl of 0.5 M (3%) orthophosphoric acid and then harvested onto P81 Unifilter plates with a wash buffer of 50 mM orthophosphoric acid.

[6] = target: PKBa (Homo sapiens (Human), UniProt P31749, S473D); experiment: PKBa kinase selectivity assay
Experimental: ΔPH-PKBa-S473D (5-20 mU diluted in 50 mM Tris pH 7.5, 0.1 mM EGTA, 0.1% b-mercaptoethanol, 1 mg/ml BSA) is assayed against a modified Crosstide peptide […] in a final volume of 25.5 μl containing 50 mM Tris pH 7.5, 0.05% b-mercaptoethanol, 30 μM substrate peptide, 10 mM magnesium acetate and 0.005 mM [33P-g-ATP](50-1000 cpm/pmole) and incubated for 30 min at room temperature. Assays are stopped by addition of 5 μl of 0.5 M (3%) orthophosphoric acid and then harvested onto P81 Unifilter plates with a wash buffer of 50 mM orthophosphoric acid.

[7] = target: PIM1 (Homo sapiens (Human), UniProt P11309); experiment: PIM1 kinase selectivity assay
Experimental: PIM1 (5-20 mU diluted in 50 mM Tris pH 7.5, 0.1 mM EGTA, 0.1% b-mercaptoethanol, 1 mg/ml BSA) is assayed against a substrate peptide ([…]) in a final volume of 25.5 μl containing 50 mM Tris pH 7.5, 0.05% b-mercaptoethanol, 300 μM substrate peptide, 10 mM magnesium acetate and 0.02 mM [33P-g-ATP] (50-1000 cpm/pmole) and incubated for 30 min at room temperature. Assays are stopped by addition of 5 μl of 0.5 M (3%) orthophosphoric acid and then harvested onto P81 Unifilter plates with a wash buffer of 50 mM orthophosphoric acid.

[8] = target: PKCa (Homo sapiens (Human), UniProt P17252); experiment: PKCa kinase selectivity assay
Experimental: PKCa (5-20 mU diluted in 20 mM Hepes pH 7.4, 0.03% Triton X-100) is assayed against Histone H1 in the presence of PtdSerine and DAG (0.1 mg/ml. and 10 μg/ml) and 0.1 mM CaCl2. The assay is carried out in a final volume of 25.5 μl containing 20 mM Hepes pH 7.4, 0.03% Triton X-100, 0.1 mg/ml Histone H1, 10 mM magnesium acetate and 0.02 mM[33P-g-ATP] (50-1000 cpm/pmole) and incubated for 30 min at room temperature. Assays are stopped by addition of 5 μl of 0.5 M (3%) orthophosphoric acid and then harvested onto P81 Unifilter plates with a wash buffer of 50 mM orthophosphoric acid.
PtdSer/DAG preparation:—PtdSer stock=10 mg/ml in MeOH/Chloroform (1:2). Dry down required amount. Resuspend in appropriate volume of 10 mM Hepes pH 7.4. Vortex and briefly sonicate. (2×10-15 seconds at 10-15 seconds apart). DAG stock=10 mg/ml in MeOH/chloroform (1:2). Dry down required amount. Add sonicated PtdSer solution. Vortex and sonicate.

Chain of TTK (P33981 whole entry, species assumed): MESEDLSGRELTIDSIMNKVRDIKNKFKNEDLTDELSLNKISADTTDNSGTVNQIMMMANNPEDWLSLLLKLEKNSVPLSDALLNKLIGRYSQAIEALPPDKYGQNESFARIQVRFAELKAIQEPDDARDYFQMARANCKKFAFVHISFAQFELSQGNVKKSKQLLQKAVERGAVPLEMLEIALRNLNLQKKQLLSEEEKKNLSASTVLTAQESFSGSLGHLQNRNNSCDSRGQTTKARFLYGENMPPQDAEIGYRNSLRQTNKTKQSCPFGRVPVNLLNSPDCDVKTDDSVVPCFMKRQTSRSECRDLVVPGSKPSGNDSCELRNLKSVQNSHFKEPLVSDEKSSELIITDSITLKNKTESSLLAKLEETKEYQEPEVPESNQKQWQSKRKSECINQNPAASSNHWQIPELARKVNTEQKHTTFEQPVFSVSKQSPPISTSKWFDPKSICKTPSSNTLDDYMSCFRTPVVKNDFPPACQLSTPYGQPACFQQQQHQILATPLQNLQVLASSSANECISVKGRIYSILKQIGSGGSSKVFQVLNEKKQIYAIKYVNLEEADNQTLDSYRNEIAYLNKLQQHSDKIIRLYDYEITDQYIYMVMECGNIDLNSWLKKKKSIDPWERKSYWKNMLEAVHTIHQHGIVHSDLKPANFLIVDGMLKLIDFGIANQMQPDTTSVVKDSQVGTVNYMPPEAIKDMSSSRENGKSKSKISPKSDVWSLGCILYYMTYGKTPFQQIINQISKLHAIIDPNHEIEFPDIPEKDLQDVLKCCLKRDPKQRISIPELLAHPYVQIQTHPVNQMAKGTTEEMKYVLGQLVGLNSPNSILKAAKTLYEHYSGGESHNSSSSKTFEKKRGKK
Chain of NEK2a (P51955 whole entry, species assumed): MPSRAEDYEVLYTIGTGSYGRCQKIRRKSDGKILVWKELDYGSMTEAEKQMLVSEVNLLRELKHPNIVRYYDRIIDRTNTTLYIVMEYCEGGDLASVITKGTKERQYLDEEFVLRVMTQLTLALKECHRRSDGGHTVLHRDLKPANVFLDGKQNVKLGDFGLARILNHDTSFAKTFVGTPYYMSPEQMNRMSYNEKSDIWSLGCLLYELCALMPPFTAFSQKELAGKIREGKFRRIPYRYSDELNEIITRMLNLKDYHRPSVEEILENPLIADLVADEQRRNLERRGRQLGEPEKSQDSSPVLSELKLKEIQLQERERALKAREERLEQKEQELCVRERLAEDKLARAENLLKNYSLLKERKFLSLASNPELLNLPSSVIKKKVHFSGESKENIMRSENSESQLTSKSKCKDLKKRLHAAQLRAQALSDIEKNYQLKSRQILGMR
Chain of PRK2 (Q16513 whole entry, species assumed): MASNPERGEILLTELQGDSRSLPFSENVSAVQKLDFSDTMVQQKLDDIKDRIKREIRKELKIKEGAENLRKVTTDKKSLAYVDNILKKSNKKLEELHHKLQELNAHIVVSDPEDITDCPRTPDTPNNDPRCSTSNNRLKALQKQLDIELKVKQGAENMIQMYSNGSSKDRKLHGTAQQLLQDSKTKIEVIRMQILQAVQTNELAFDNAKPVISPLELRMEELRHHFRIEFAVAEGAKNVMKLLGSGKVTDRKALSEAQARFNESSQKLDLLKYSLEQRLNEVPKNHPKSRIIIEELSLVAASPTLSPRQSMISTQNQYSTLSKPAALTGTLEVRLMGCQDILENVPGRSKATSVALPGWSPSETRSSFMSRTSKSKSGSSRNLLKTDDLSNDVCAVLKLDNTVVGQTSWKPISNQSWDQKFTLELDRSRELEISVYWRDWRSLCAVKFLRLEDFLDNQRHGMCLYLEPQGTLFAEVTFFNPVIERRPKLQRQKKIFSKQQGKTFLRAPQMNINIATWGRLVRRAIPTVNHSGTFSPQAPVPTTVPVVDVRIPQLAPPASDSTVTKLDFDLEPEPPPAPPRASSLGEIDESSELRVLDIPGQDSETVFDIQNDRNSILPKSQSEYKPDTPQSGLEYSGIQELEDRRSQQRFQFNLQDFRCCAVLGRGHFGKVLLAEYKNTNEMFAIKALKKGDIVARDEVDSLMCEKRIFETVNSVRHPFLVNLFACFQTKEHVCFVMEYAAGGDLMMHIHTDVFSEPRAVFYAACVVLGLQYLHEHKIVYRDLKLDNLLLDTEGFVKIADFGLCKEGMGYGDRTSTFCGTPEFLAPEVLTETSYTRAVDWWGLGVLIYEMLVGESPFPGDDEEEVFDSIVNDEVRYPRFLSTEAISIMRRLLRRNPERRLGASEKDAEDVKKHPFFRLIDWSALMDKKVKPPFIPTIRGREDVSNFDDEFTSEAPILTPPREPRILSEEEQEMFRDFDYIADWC
Chain of PKBa (P31749 118-480 S473D): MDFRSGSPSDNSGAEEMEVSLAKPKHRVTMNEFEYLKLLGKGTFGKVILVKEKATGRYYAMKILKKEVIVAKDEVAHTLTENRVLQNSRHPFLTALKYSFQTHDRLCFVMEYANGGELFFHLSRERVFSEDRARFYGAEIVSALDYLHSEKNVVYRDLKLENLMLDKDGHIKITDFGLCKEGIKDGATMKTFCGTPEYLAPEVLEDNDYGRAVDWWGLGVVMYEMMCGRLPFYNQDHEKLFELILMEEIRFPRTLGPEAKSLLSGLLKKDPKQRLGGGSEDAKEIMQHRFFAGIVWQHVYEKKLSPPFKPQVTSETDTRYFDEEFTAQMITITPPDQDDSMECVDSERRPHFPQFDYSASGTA
Chain of PIM1 (P11309 whole entry, species assumed): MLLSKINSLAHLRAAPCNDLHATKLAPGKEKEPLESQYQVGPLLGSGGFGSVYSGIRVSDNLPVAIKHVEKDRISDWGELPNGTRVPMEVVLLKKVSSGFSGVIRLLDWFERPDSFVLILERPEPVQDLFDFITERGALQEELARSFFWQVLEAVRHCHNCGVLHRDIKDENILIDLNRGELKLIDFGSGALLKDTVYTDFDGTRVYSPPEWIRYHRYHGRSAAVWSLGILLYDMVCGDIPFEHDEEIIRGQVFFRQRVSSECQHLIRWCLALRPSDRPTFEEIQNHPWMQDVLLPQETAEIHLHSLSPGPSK

Compound	percentage inhibition of CAMKKb [1]	percentage inhibition of NEK2a [2]	percentage inhibition of CK2 [3]	percentage inhibition of PRK2 [4]	percentage inhibition of TTK [5]	percentage inhibition of PKBa [6]	percentage inhibition of PIM1 [7]	percentage inhibition of PKCa [8]
c1cc2[nH]nc3c2c(n1)N(C1CCOCC1)CCC3 [Example 29, 6-(tetrahydro-2H-pyran-4-yl)-6,7,8,9-tetrahydro-2H-1,2,5,6-tetraazabenzo[cd]azulene]	0 percentage	0 percentage	0 percentage	0 percentage	2 percentage	0 percentage	0 percentage	11 percentage
c1cc2[nH]nc3c2c(n1)N(C1CCC1)CCC3 [Example 22, 6-cyclobutyl-6,7,8,9-tetrahydro-2H-1,2,5,6-tetraazabenzo[cd]azulene]	5 percentage	13 percentage	0 percentage	2 percentage	0 percentage	3 percentage	0 percentage	0 percentage
CC(C)n1ncc2c1CN(C1CCN(C)CC1)c1nccc3[nH]nc-2c13 [Example 68]	0 percentage	0 percentage	4 percentage	8 percentage	2 percentage	0 percentage	77 percentage	2 percentage
c1cc2[nH]nc3c2c(n1)N(C1CCCC1)CCC3 [Example 23, 6-cyclopentyl-6,7,8,9-tetrahydro-2H-1,2,5,6-tetraazabenzo[cd]azulene]	7 percentage	8 percentage	–	0 percentage	0 percentage	0 percentage	0 percentage	0 percentage
CN1CCC(N2Cc3ccccc3-c3n[nH]c4ccnc2c34)CC1 [Example 55]	0 percentage	14 percentage	11 percentage	0 percentage	35 percentage	1 percentage	26 percentage	0 percentage
